Measurements from ChEMBL document CHEMBL3822442, “Synthesis and Pharmacological Characterization of Novel Glucagon-like Peptide-2 (GLP-2) Analogues with Low Systemic Clearance” (J Med Chem, 2016).
Activity calls are given as the source filed them. No cut-off for these calls is given here. Non-standard residues stand in square brackets, D forms with d. Residues, ends and D or L forms follow the SMILES beside them. ξ: configuration not given here. Cha = N[C@@H](CC1CCCCC1)C(=O)O; ξNle = CCCCC(N)C(=O)O

Experiments:
[1] = biological target: T1, Glucagon-like peptide 2 receptor (Homo sapiens, UniProt O95838); assay: Agonist activity at human GLP2R expressed in HEK293 cells after 5 hrs by luciferase reporter gene assay; type: cell-based
T1 sequence (O95838 whole entry): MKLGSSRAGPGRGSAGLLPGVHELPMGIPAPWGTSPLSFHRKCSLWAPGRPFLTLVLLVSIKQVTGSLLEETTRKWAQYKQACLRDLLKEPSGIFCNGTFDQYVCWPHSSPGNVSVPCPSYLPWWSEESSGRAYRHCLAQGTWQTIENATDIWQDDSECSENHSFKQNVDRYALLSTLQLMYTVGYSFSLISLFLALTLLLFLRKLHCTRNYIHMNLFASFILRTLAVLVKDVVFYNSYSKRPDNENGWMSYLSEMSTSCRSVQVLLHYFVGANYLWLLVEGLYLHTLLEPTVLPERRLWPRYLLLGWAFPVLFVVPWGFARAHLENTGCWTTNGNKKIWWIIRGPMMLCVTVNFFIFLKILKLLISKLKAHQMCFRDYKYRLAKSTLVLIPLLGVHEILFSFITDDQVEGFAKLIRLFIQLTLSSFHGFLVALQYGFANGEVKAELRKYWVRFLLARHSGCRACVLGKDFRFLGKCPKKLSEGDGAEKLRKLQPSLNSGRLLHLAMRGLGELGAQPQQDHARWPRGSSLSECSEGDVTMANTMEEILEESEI

[2] = biological target: T2, Glucagon-like peptide 1 receptor (Homo sapiens, UniProt P43220); assay: Agonist activity at human GLP1R expressed in HEK293 cells after 5 hrs by luciferase reporter gene assay; type: cell-based
T2 sequence (P43220 whole entry): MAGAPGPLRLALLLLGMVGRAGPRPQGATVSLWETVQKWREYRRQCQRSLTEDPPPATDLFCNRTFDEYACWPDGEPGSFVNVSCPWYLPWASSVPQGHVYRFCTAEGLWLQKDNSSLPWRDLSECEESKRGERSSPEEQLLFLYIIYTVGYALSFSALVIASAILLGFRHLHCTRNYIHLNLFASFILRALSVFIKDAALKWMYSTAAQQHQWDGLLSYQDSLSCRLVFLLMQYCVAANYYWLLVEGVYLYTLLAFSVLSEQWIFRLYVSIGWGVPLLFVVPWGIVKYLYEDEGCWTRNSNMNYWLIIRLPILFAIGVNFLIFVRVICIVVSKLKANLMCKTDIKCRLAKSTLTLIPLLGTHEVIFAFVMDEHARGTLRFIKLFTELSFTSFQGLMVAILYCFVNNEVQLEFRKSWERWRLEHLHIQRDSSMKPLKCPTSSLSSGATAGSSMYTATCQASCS

[3] = Systemic clearance in Sprague-Dawley rat at 0.2 mg/kg, iv through cassette dosing measured up to 300 mins by LC/MS/MS analysis; type: ADME, organism-based; settings: in vivo
[4] = biological target: T2, Glucagon-like peptide 1 receptor; assay: Agonist activity at human GLP1R expressed in HEK293 cells at 30 nM after 5 hrs by luciferase reporter gene assay; type: cell-based
[5] = tested on: HEK293; assay: Selectivity ratio of EC50 for human GLP1R expressed in HEK293 cells to EC50 for human GLP2R expressed in HEK293; type: cell-based
[6] = biological target: Glucagon receptor (Homo sapiens) (UniProt P47871); assay: Agonist activity at human GCGR expressed in HEK293 cells after 5 hrs by luciferase reporter gene assay; type: cell-based
Sequence of Glucagon receptor (Homo sapiens) (P47871 whole entry): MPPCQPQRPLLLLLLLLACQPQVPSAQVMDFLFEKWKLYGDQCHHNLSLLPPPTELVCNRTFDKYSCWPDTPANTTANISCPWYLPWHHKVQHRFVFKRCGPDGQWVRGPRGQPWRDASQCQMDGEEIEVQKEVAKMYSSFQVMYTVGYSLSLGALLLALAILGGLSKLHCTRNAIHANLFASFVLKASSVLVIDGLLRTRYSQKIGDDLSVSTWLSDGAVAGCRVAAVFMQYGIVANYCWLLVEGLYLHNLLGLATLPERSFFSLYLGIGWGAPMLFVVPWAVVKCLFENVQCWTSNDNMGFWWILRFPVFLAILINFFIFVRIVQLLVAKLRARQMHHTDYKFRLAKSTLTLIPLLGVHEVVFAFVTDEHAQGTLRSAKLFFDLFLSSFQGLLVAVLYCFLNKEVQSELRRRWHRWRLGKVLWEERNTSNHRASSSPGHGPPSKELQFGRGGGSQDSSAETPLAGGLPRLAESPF

| Compound | EC50 [1] [nM] | EC50 [2] [nM] | clearance [3] [mL/min/kg] | Efficacy [4] [%] | Ratio EC50 [5] | Activity [6] |
| --- | --- | --- | --- | --- | --- | --- |
| CCCCC(NC(=O)[C@H](CCC(=O)O)NC(=O)[C@H](CC(=O)O)NC(=O)[C@H](CO)NC(=O)[C@H](Cc1ccccc1)NC(=O)[C@H](CO)NC(=O)CNC(=O)[C@H](CC(=O)O)NC(=O)CNC(=O)[C@@H](N)Cc1cnc[nH]1)C(=O)N[C@@H](CC1CCCCC1)C(=O)N[C@H](C(=O)N[C@H](C(=O)N[C@@H](CC(C)C)C(=O)N[C@@H](CC(=O)O)C(=O)N[C@@H](CC(N)=O)C(=O)N[C@@H](CC(C)C)C(=O)N[C@@H](C)C(=O)N[C@@H](C)C(=O)N[C@@H](CCCNC(=N)N)C(=O)N[C@@H](CC(=O)O)C(=O)N[C@@H](Cc1ccccc1)C(=O)N[C@H](C(=O)N[C@@H](CC(N)=O)C(=O)N[C@@H](Cc1c[nH]c2ccccc12)C(=O)N[C@@H](CC(C)C)C(=O)N[C@H](C(=O)N[C@@H](CCC(N)=O)C(=O)N[C@H](C(=O)N[C@@H](CCCCN)C(N)=O)[C@@H](C)O)[C@@H](C)CC)[C@@H](C)CC)[C@@H](C)CC)[C@@H](C)O (stereo partly drawn) (H-HGDGSFSDE[ξNle][Cha]TILDNLAARDFINWLIQTK-NH2) | 0.51 | 8.9 | 0.69 | 83 | 17 | inactive |
| CCCCC(NC(=O)[C@H](CCC(=O)O)NC(=O)[C@H](CC(=O)O)NC(=O)[C@H](CO)NC(=O)[C@H](Cc1ccccc1)NC(=O)[C@H](CO)NC(=O)CNC(=O)[C@H](CC(=O)O)NC(=O)CNC(=O)[C@@H](N)Cc1cnc[nH]1)C(=O)N[C@H](Cc1ccsc1)C(=O)N[C@H](C(=O)N[C@H](C(=O)N[C@@H](CC(C)C)C(=O)N[C@@H](CC(=O)O)C(=O)N[C@@H](CC(N)=O)C(=O)N[C@@H](CC(C)C)C(=O)N[C@@H](C)C(=O)N[C@@H](C)C(=O)N[C@@H](CCCNC(=N)N)C(=O)N[C@@H](CC(=O)O)C(=O)N[C@@H](Cc1ccccc1)C(=O)N[C@H](C(=O)N[C@@H](CC(N)=O)C(=O)N[C@@H](Cc1c[nH]c2ccccc12)C(=O)N[C@@H](CC(C)C)C(=O)N[C@H](C(=O)N[C@@H](CCC(N)=O)C(=O)N[C@H](C(=O)N[C@@H](CCCCN)C(N)=O)[C@@H](C)O)[C@@H](C)CC)[C@@H](C)CC)[C@@H](C)CC)[C@@H](C)O (stereo partly drawn) | 0.09 | 83 | 1.3 | 39 | 920 | inactive |
| CCCCC(NC(=O)[C@H](CCC(=O)O)NC(=O)[C@H](CC(=O)O)NC(=O)[C@H](CO)NC(=O)[C@H](Cc1ccccc1)NC(=O)[C@H](CO)NC(=O)CNC(=O)[C@H](CC(=O)O)NC(=O)CNC(=O)[C@@H](N)Cc1cnc[nH]1)C(=O)N[C@H](Cc1c[nH]c2ccccc12)C(=O)N[C@H](C(=O)N[C@H](C(=O)N[C@@H](CC(C)C)C(=O)N[C@@H](CC(=O)O)C(=O)N[C@@H](CC(N)=O)C(=O)N[C@@H](CC(C)C)C(=O)N[C@@H](C)C(=O)N[C@@H](C)C(=O)N[C@@H](CCCNC(=N)N)C(=O)N[C@@H](CC(=O)O)C(=O)N[C@@H](Cc1ccccc1)C(=O)N[C@H](C(=O)N[C@@H](CC(N)=O)C(=O)N[C@@H](Cc1c[nH]c2ccccc12)C(=O)N[C@@H](CC(C)C)C(=O)N[C@H](C(=O)N[C@@H](CCC(N)=O)C(=O)N[C@H](C(=O)N[C@@H](CCCCN)C(N)=O)[C@@H](C)O)[C@@H](C)CC)[C@@H](C)CC)[C@@H](C)CC)[C@@H](C)O (stereo partly drawn) | 0.1 | 40 | 1.2 | 80 | 400 | inactive |
